The values below come from patent US20220142995A1, “DUAL ATM AND DNA-PK INHIBITORS FOR USE IN ANTI-TUMOR THERAPY” (XRAD Therapeutics, Inc., priority 2019, published 2022).

Each structure is given as a SMILES string. “And” between values parts separate entries of the source, which are not always exact repeats. Equal entries are not always repeated. Structures can show the parent of a compound that is named as a salt.

The target of one experiment is T1, PI3Kδ (Homo sapiens, UniProt O00329).
T1 construct: purchased ThermoFisher PV6451
The experiment in a line: PI3Kδ biochemical assay (ADP-Glo). To be noted: second value of PI3K-α/δ cell; ATP 10 μM. As for the experimental part:
(§1) PI3Kα and PI3Kδ Biochemical Assay:
(§2) PI3K[…] and PI3K[…] Kinase reactions were performed in a 5 μL volume in low-volume 384-well plates. Typically, PerkinElmer model 6008280 plates were used. The 1× kinase reaction buffer consisted of 50 mM HEPES pH 7.5, 3 mM MgCl2, 0.03% CHAPS, 1 mM EGTA, 100 mM NaCl, and 2 mM DTT. PI3K[…] (ThermoFisher, #PV4788; the final PI3K[…] concentration: 120 ng/mL) or PI3K[…] enzyme solution (ThermoFisher, #PV6451; the final PI3K[…] concentration: 250 ng/mL) was added to the plate, compounds were serially diluted to the final maximal concentration of 100 nM (3 fold series dilution, a total of 10 doses), and the PIP2:3PS (the final concentration: 10 µg/mL) and ATP solution (the final ATP concentration: 10 μM) was added to the 384-well plate. The plate was incubated at 25° C. for 1 hour. ADP-Glo reagent buffer (5 μL) was added to each well. The plate was sealed and incubated for 40 min at 25° C. ADP-Glo detection buffer (10 μL) was added to each well, and the plate was incubated for 40 min at 25° C. and read on a plate reader configured for Luminescence.
A general note: ADP-Glo turns the ADP formed in a reaction into a luminescent signal.

The target in a further experiment is T2, PI3Kα (Homo sapiens, UniProt P42336).
T2 construct: purchased ThermoFisher PV4788
T2 sequence (P42336 whole entry): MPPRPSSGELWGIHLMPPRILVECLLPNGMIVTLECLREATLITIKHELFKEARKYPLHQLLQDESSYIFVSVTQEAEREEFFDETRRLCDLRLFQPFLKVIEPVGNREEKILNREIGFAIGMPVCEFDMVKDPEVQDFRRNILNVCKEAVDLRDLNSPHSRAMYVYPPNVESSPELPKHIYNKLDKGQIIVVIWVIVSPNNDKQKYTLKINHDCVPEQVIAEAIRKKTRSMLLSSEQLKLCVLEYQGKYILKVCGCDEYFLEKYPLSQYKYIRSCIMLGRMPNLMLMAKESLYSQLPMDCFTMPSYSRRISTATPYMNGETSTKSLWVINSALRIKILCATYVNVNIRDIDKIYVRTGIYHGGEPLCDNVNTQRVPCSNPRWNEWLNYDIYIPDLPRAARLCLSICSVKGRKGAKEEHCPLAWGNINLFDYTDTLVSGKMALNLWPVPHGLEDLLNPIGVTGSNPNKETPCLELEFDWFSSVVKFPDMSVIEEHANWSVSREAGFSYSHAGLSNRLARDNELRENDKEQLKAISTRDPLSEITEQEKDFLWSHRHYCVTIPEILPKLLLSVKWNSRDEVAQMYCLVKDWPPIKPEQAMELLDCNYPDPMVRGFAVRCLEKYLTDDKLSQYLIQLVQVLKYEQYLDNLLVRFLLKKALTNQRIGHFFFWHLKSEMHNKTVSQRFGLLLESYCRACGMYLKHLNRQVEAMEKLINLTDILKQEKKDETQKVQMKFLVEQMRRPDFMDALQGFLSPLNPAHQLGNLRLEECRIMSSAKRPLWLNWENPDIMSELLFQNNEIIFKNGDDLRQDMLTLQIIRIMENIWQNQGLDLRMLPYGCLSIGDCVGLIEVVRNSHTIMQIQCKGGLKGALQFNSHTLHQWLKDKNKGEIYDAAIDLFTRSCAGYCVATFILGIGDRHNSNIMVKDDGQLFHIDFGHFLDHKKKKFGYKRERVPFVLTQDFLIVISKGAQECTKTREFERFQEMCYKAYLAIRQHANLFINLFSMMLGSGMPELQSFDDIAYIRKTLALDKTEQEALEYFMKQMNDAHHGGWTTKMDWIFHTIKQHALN
T2 sequence (P27986 whole entry partner): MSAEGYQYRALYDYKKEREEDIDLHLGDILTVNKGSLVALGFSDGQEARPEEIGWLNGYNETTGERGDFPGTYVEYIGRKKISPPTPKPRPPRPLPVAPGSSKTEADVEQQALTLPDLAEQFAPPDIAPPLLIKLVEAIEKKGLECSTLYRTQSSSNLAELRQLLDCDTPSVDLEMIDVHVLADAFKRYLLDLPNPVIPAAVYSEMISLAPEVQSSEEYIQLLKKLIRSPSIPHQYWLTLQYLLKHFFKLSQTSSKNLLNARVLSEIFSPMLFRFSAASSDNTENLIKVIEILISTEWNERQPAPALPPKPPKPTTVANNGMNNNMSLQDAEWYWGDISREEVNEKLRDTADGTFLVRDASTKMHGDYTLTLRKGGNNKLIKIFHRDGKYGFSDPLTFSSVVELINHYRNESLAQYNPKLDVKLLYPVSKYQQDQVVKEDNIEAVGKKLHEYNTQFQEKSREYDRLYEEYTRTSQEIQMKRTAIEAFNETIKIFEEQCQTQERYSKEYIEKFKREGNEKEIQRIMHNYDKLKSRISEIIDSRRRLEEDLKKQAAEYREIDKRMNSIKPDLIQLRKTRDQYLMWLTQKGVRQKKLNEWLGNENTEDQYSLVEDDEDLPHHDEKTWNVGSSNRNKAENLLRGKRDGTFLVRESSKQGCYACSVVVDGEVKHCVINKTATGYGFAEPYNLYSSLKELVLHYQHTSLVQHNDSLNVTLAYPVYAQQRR
Briefly: PI3Kα biochemical assay (ADP-Glo). The note with it: first value of PI3K-α/δ cell; ATP 10 μM. Here is the method: as §1, §2

A further experiment concerns the target T3, mTOR (Homo sapiens, UniProt P42345).
T3 construct: purchased ThermoFisher PR8683B
The experiment in a line: mTOR biochemical assay (LanthaScreen TR-FRET). The note with it: ATP 3 μM, maximal concentration 100 nM. As for the experimental part:
mTOR Kinase reactions were performed in a 10 μL volume in low-volume 384-well plates. Typically, PerkinElmer model 6008260 plates were used. The composition of the 1× kinase reaction buffer was: 50 mM HEPES pH 7.5, 0.01% Tween 20, 1 mM EGTA, 10 mM MnCl2, and 2 mM DTT. The solution of mTOR enzyme (ThermoFisher, #PR8683B; the final mTOR concentration: 0.5 μg/mL) was added, and the compounds were serially diluted to the final maximal concentration of 100 nM (3 fold series dilution, a total of 10 doses). GFP-4E-BP1 (the final concentration: 0.4 μM) and the ATP solution (the final ATP concentration: 3 μM) were added to the 384-well plate. The plate was incubated at 25° C. for 1 hour, and 10 μL of the EDTA solution (20 mM) and Tb-labeled anti-p4E-BP1 antibody (4 nM) in TR-FRET dilution buffer were added to each well. The plate was sealed, incubated 30 min at 25° C., and read on a plate reader configured for LanthaScreen™ TRFRET.
For orientation: In TR-FRET formats the signal depends on donor and acceptor labels being close together.

In the next experiment the target is T4, ATM (Homo sapiens, UniProt Q13315).
T4 construct: endogenous in cells; host or cells: MCF-7
T4 sequence (Q13315 whole entry): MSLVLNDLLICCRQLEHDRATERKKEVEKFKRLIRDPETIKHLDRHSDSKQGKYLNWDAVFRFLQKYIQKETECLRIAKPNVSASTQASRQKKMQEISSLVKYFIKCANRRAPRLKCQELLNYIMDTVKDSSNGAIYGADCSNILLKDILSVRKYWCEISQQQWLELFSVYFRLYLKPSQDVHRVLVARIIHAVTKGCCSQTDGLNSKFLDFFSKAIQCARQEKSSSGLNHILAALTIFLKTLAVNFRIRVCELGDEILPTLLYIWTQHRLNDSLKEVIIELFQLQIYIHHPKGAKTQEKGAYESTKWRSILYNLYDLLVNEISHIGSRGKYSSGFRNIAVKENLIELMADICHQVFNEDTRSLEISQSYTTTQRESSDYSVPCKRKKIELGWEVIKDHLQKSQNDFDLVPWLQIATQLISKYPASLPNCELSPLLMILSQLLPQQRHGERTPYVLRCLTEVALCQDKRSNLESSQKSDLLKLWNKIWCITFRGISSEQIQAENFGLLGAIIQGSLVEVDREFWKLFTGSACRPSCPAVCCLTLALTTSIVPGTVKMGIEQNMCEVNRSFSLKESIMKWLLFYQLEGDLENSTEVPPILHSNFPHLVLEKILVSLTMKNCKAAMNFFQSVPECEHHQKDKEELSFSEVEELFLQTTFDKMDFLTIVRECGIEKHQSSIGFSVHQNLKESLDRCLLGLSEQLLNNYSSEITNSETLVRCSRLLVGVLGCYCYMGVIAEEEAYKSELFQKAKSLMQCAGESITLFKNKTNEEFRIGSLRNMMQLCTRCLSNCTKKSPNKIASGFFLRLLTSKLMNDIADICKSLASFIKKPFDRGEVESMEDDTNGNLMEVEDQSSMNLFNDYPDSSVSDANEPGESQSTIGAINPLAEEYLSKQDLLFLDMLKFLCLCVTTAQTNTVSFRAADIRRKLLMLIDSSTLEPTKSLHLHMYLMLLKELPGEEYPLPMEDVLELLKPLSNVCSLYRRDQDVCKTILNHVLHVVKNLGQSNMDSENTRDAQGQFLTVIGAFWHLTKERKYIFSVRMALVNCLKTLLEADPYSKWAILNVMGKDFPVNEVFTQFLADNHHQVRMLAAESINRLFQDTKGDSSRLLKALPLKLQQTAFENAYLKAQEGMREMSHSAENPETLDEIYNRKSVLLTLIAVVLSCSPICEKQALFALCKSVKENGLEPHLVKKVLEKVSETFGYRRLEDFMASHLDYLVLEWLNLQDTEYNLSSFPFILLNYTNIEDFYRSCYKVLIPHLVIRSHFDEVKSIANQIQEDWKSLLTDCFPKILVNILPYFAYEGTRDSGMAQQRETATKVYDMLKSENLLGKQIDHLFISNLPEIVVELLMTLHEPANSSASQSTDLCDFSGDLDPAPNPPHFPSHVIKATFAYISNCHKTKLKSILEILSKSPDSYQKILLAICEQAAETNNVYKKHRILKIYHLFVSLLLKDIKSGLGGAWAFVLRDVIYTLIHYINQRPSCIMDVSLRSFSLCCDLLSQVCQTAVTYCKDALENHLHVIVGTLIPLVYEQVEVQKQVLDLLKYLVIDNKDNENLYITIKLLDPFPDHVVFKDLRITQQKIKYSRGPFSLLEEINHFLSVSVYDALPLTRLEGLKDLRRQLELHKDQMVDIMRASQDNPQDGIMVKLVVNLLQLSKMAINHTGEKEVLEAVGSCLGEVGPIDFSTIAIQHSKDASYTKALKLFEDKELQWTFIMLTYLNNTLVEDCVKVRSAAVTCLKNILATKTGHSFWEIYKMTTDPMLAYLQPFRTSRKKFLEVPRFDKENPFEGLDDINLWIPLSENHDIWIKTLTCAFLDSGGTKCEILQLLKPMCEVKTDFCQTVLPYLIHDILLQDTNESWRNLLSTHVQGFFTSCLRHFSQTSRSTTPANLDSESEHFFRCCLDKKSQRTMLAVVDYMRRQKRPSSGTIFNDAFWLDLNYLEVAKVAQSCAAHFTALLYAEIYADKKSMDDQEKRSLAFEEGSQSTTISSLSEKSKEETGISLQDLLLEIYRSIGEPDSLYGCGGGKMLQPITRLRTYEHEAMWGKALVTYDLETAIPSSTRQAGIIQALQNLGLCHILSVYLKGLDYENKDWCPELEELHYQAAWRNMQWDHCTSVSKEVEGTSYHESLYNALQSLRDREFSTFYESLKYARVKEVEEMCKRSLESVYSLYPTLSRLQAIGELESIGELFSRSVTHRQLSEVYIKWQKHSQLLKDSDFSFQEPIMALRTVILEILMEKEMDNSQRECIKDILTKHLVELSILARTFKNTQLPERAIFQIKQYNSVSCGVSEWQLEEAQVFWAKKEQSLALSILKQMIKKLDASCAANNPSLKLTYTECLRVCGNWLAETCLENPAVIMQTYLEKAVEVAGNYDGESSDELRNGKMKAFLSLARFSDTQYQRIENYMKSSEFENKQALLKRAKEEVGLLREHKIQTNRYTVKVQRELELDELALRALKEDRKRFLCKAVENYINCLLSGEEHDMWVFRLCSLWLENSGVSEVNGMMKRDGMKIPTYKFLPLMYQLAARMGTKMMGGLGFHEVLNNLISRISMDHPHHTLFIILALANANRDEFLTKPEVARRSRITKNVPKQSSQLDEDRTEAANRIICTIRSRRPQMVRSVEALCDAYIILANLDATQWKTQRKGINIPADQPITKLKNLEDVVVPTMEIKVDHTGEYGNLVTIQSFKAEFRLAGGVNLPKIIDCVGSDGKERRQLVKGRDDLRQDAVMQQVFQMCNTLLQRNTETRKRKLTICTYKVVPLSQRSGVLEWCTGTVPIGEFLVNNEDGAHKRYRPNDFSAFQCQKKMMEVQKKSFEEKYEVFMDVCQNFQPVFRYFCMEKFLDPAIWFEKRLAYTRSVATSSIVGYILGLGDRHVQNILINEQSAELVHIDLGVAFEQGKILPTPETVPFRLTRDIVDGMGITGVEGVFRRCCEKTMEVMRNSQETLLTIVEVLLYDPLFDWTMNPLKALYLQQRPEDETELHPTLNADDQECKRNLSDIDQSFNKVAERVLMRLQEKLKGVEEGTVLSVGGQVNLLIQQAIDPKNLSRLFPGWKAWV
Briefly: ATM in Cell Western assay (pKAP1, etoposide-treated MCF-7 cells). The note with it: etoposide 100 μM, 1 h, pKAP1 readout. The class given is cell-based. As for the experimental part: ATM in Cell Western Assay:
In the morning, MCF-7 breast cancer cells were placed in a 384 well plate at the density of 10,000 cells/well (Corning, #356663), 25 μL cells per well. The following day, compounds were added to the plate using a pin tool (Echo 550) to a final concentration of 1 μM through a 3-fold serial dilution (a total of 10 doses). Then, etoposide (Sigma, #E1383) was added to a final concentration of 100 μM. The plate was incubated at 37° C. for 1 h, and the cells were fixed by the addition of 25 μL of fixing solution (8% paraformaldehyde) for 20 minutes at ambient temperature. Cells were permeabilized by 5 washes with 1×PBS (phosphate buffered saline) containing 0.1% Triton X-100; each wash was 5 minutes long. Cells were blocked by adding 50 μL of Odyssey Blocking Buffer (LI-COR, #927-40000) in 384 well plates for 1.5 hours with shaking at ambient temperature. Blocking buffer was then removed, and 20 μL of anti-pKAP1 antibody (Bethyl Laboratories, #A300-767A) (1/2000) solution were added to each well of 384-well plate. The plate was incubated overnight at 4° C. and then washed 5 times with 1×PBST (1×PBS containing 0.1% Tween-20). A secondary antibody (IRDye 800CW Goat anti-Rabbit IgG, LI-COR, #926-32211) (1/5,000) solution containing DNA stain DRAQ5 (CST, #4084L) (1/5,000) (20 μL) was added to each well in the plate, and the plate was incubated 1 hour with gentle shaking in the dark. Cells were washed 5 times with 1×PBST (1×PBS containing 0.1% Tween-20) at ambient temperature with gentle shaking in the dark. After the last wash, the wash solution was removed, the plate was inverted upside down onto a thin paper towel and centrifuged at 1000 rpm for 1 min to absorb all wash buffer. The bottom of the plate was cleaned with a moist, lint-free paper. The plate was immediately scanned using ODYSSEY CLx (LI-COR).

Take `CC(C)NCCOc1ncc(-c2cc3c(cc2F)ncc2c3[C@]3(C[C@H](OCc4ccccc4)C3)C(=O)N2C)cc1NS(C)(=O)=O` [Compound 572, cis-N-(5-(3-(Benzyloxy)-7′-fluoro-3′-methyl-2′-oxo-2′,3′-dihydrospiro[cyclobutane-1,1′-pyrrolo[2,3-c]quinolin]-8′-yl)-2-(2-(isopropylamino)ethoxy)pyridin-3-yl)methanesulfonamide]: the IC50 (in general, the concentration at which inhibition is half-maximal) was 15 nM on PI3Kδ, 23 nM at PI3Kα, greater than 100 nM against mTOR and 1.05 nM on ATM.

As for `CC(C)NCCOc1ncc(-c2cc3c(cc2F)ncc2c3[C@]3(C[C@@H](OCc4ccccc4)C3)C(=O)N2C)cc1NS(C)(=O)=O` [Compound 567, trans-N-(5-(3-(Benzyloxy)-7′-fluoro-3′-methyl-2′-oxo-2′,3′-dihydrospiro[cyclobutane-1,1′-pyrrolo[2,3-c]quinolin]-8′-yl)-2-(2-(isopropylamino)ethoxy)pyridin-3-yl)methanesulfonamide], the IC50 on PI3Kδ is greater than 100 nM; against PI3Kα, greater than 100 nM; on mTOR, greater than 100 nM; at ATM, 11 nM.

Regarding `CC(C)NCCOc1ncc(-c2cc3c4c(cnc3cc2F)N(C)C(=O)C42CN(C(C)C)C2)cc1NS(C)(=O)=O` [Compound 571, N-(5-(7′-Fluoro-1-isopropyl-3′-methyl-2′-oxo-2′,3′-dihydrospiro[azetidine-3,1′-pyrrolo[2,3-c]quinolin]-8′-yl)-2-(2-(isopropylamino)ethoxy)pyridin-3-yl)methanesulfonamide], the IC50 was 62 nM against PI3Kα; greater than 100 nM against mTOR; 5.76 nM and 5.51 nM against ATM.

With `CC(C)NCCOc1ncc(-c2cc3c4c(cnc3cc2F)N(C)C(=O)C42CCC2)cc1NS(=O)(=O)C(C)C` [Compound 568, N-(5-(7′-Fluoro-3′-methyl-2′-oxo-2′,3′-dihydrospiro[cyclobutane-1,1′-pyrrolo[2,3-c]quinolin]-8′-yl)-2-(2-(isopropylamino)ethoxy)pyridin-3-yl)propane-2-sulfonamide], the IC50 on PI3Kδ was 54 nM; at PI3Kα, 18 nM; on mTOR it was greater than 100 nM; against ATM, 2.88 nM.

In the case of `CC(C)NCCOc1ncc(-c2cc3c4c(cnc3cc2F)N(C)C(=O)C42CCC2)cc1NS(C)(=O)=O` [Compound 569, N-(5-(7′-Fluoro-3′-methyl-2′-oxo-2′,3′-dihydrospiro[cyclobutane-1,1′-pyrrolo[2,3-c]quinolin]-8′-yl)-2-(2-(isopropylamino)ethoxy)pyridin-3-yl)methanesulfonamide], the IC50 at PI3Kδ was determined as 73 nM; at PI3Kα it was 16 nM; at ATM, 2.43 nM.

For `CC[C@H]1C[C@]2(C1)C(=O)N(C)c1cnc3cc(F)c(-c4cnc(OCCNC(C)C)c(NS(C)(=O)=O)c4)cc3c12` [Compound 573, cis-N-(5-(3-Ethyl-7′-fluoro-3′-methyl-2′-oxo-2′,3′-dihydrospiro[cyclobutane-1,1′-pyrrolo[2,3-c]quinolin]-8′-yl)-2-(2-(isopropylamino)ethoxy)pyridin-3-yl)methanesulfonamide], the IC50 was 12 nM on PI3Kδ, 18 nM against PI3Kα, greater than 100 nM at mTOR and 0.92 nM on ATM.

`CC[C@H]1C[C@@]2(C1)C(=O)N(C)c1cnc3cc(F)c(-c4cnc(OCCNC(C)C)c(NS(C)(=O)=O)c4)cc3c12` [Compound 566, trans-N-(5-(3-Ethyl-7′-fluoro-3′-methyl-2′-oxo-2′,3′-dihydrospiro[cyclobutane-1,1′-pyrrolo[2,3-c]quinolin]-8′-yl)-2-(2-(isopropylamino)ethoxy)pyridin-3-yl)methanesulfonamide]: the IC50 on PI3Kδ is 14 nM; against PI3Kα it was greater than 100 nM; at mTOR, greater than 100 nM; on ATM, 6.72 nM.

Regarding `CN1C(=O)C2(CCC2)c2c1cnc1ccc(-c3cnc(N4CC(N(C)C)C4)c(NS(C)(=O)=O)c3)cc21` [Compound 574, N-(2-(3-(Dimethylamino)azetidin-1-yl)-5-(3′-methyl-2′-oxo-2′,3′-dihydrospiro[cyclobutane-1,1′-pyrrolo[2,3-c]quinolin]-8′-yl)pyridin-3-yl)methanesulfonamide hydrochloride], the IC50 at PI3Kδ stood at 3 nM; against PI3Kα it was 0.12 nM; on mTOR, 19.9 nM; on ATM, 1.52 nM.

For `CCS(=O)(=O)Nc1cc(-c2cc3c4c(cnc3cc2F)N(C)C(=O)C42CCC2)cnc1OCCNC(C)C` [Compound 570, N-(5-(7′-Fluoro-3′-methyl-2′-oxo-2′,3′-dihydrospiro[cyclobutane-1,1′-pyrrolo[2,3-c]quinolin]-8′-yl)-2-(2-(isopropylamino)ethoxy)pyridin-3-yl)ethanesulfonamide], the IC50 at PI3Kδ is 55 nM; at PI3Kα, 21 nM; on mTOR, greater than 100 nM; against ATM it was 3.6 nM.
